A short description of data set [1]: Kinetic solubility assay (CLND), pH 6.8. The following applies: aqueous buffer, kinetic from dmso stock; potassium phosphate buffer pH 6.8, 2% DMSO, 24 hours at ambient temperature. In kind it is physicochemical.
Data set [2] addresses MDR1 (Homo sapiens (Human), UniProt P08183). The experiment in a line: in vitro. The note with it: MDCK-MDR1.
Data set [3] addresses IRAK4 (Homo sapiens (Human), UniProt Q9NWZ3). The experiment in a line: IRAK4 MSD biochemical assay (2-hour 1 mM ATP). The note with it: 0.1 nM IRAK4, 1 mM ATP, 2 hour at room temperature.

The record followed here is US20240116922A1, “IMIDAZO[1,2-A]PYRIDINE DERIVATIVES AS IRAK4 INHIBITORS AND THEIR USE IN THE TREATMENT OF DISEASE” (BIOGEN MA INC., priority 2020, published 2024).

Values after ≈ are worked out from the molar mass of the structure shown. Structures can show the parent of a compound that is named as a salt.

Sequence of MDR1 (P08183 whole entry): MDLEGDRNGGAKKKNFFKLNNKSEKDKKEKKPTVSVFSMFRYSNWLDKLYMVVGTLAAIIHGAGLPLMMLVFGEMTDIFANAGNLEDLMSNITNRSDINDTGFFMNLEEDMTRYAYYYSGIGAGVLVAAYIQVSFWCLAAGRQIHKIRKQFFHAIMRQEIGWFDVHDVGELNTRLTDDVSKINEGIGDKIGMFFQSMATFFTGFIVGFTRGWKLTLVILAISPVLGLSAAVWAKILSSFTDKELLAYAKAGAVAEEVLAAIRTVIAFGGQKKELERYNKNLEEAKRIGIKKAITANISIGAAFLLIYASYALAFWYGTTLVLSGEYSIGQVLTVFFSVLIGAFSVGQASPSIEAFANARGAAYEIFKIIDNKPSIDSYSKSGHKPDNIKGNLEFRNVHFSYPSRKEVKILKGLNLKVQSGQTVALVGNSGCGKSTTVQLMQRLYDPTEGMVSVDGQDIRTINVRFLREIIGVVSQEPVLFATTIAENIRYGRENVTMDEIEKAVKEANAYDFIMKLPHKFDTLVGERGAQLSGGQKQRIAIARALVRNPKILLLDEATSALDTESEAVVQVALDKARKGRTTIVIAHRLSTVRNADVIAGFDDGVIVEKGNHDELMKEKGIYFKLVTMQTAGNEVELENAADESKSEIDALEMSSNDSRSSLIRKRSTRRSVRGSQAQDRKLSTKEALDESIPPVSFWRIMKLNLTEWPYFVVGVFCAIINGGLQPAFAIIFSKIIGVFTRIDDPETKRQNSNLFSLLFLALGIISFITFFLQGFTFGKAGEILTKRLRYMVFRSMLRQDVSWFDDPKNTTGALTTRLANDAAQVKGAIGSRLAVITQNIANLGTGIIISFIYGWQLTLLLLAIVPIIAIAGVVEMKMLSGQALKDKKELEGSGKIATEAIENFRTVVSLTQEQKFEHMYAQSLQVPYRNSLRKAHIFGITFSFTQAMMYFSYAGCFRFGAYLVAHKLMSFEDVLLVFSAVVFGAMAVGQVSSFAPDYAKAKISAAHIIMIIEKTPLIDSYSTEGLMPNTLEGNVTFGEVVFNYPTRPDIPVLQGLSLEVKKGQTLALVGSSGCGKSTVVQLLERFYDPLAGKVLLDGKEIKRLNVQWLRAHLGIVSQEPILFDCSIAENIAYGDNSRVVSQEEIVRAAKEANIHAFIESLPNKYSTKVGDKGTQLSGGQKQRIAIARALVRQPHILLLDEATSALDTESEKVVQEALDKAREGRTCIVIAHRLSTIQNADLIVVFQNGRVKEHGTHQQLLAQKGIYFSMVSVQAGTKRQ
Sequence of IRAK4 (Q9NWZ3 whole entry): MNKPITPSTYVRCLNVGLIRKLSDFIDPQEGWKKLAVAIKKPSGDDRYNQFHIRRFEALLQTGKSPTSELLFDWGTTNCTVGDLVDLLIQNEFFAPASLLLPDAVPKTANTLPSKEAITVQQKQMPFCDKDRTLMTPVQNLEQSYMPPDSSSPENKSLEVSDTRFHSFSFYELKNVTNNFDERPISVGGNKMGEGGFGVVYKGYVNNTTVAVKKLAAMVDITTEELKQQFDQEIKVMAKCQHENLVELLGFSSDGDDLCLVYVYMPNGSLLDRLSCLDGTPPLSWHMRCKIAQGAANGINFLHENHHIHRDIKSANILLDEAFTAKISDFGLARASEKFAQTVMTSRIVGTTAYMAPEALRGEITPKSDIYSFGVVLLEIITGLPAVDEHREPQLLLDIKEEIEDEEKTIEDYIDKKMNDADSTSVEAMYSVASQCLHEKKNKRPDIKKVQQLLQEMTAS

As for `CC(C)Oc1cc2nc([C@]34CC[C@](C)(C3)OC4)cn2cc1C(=O)Nc1cccn([C@H]2C[C@H]2F)c1=O` [Example 171, N-(1-((1S,2R)-2-fluorocyclopropyl)-2-oxo-1,2-dihydropyridin-3-yl)-7-isopropoxy-2-((1R,4S)-1-methyl-2-oxabicyclo[2.2.1]heptan-4-yl)imidazo[1,2-a]pyridine-6-carboxamide], the kinetic solubility at 24 h in data set [1] was determined as 0.0479 mg/mL (≈ 99.7 µM). Also, the efflux ratio at 120 min, 1 μM in data set [2] is 9.8. This compound yielded an IC50 in data set [3] of 0.2 nM.

Consider `CCC12CC(c3cn4cc(C(=O)Nc5cccn(C6CC6)c5=O)c(OC(C)C)cc4n3)(CO1)C2` [Example 2, N-(1-cyclopropyl-2-oxo-1,2-dihydropyridin-3-yl)-2-(1-ethyl-2-oxabicyclo[2.1.1]hexan-4-yl)-7-isopropoxyimidazo[1,2-a]pyridine-6-carboxamide], for which, in data set [1], the kinetic solubility at 24 h worked out at 0.0657 mg/mL (≈ 142 µM). Moreover, the efflux ratio at 120 min, 1 μM in data set [2] was found to be 3.3. For the same compound, the IC50 in data set [3] was found to be 0.4 nM.

As to `CC(C)Oc1cc2nc([C@]34CC[C@H](C3)OC4)cn2cc1C(=O)Nc1cccn(C2CC2)c1=O` (single isomer, unassigned) [Example 40], the kinetic solubility at 24 h in data set [1] is 0.0702 mg/mL (≈ 157 µM). Further, the efflux ratio at 120 min, 1 μM in data set [2] was 7.5. The compound also returned a half-maximal inhibitory concentration (IC50) in data set [3] of 0.4 nM.

`CC[C@H](C)Oc1cc2nc(C34COC(C)(C3)C4)cn2cc1C(=O)Nc1cccn([C@H]2C[C@H]2F)c1=O` (single isomer, unassigned) [Example 161]: in data set [1], the kinetic solubility at 24 h was 0.0546 mg/mL (≈ 114 µM). Further, the efflux ratio at 120 min, 1 μM in data set [2] stood at 8.6. Moreover, the IC50 in data set [3] was found to be 0.1 nM.

With `CC(C)Oc1cc2nc([C@@]34CC[C@@](C)(C3)OC4)cn2cc1C(=O)Nc1cccn([C@@H]2C[C@H]2F)c1=O` [Example 116, N-(1-((1R,2R)-2-fluorocyclopropyl)-2-oxo-1,2-dihydropyridin-3-yl)-7-isopropoxy-2-((1S,4R)-1-methyl-2-oxabicyclo[2.2.1]heptan-4-yl)imidazo[1,2-a]pyridine-6-carboxamide], the kinetic solubility at 24 h in data set [1] worked out at 0.0556 mg/mL (≈ 116 µM). In addition, the efflux ratio at 120 min, 1 μM in data set [2] is 5.3. The compound also returned a half-inhibitory concentration (IC50) in data set [3] of 0.6 nM.

For `O=C(Nc1cccn([C@H]2C[C@H]2F)c1=O)c1cn2cc(C34COC(C3)C4)nc2nc1OC1CCC1` (single isomer, unassigned) [Example 167], the solubility (kinetic) at 24 h in data set [1] stood at 0.0192 mg/mL (≈ 41.2 µM). Further, the efflux ratio at 120 min, 1 μM in data set [2] is 2.3. In addition, the IC50 in data set [3] was found to be 0.2 nM.

On to `CC12CCC(c3cn4cc(C(=O)Nc5cccn(C6CC6)c5=O)c(OC5CCC5)cc4n3)(CC1)CO2` [Example 1, 7-cyclobutoxy-N-(1-cyclopropyl-2-oxo-1,2-dihydropyridin-3-yl)-2-(1-methyl-2-oxabicyclo[2.2.2]octan-4-yl)imidazo[1,2-a]pyridine-6-carboxamide], for which, in data set [1], the kinetic solubility at 24 h came to 0.056 mg/mL (≈ 115 µM). Also, the efflux ratio at 120 min, 1 μM in data set [2] is 1.7. For the same compound, in data set [3], it took 0.2 nM to reach half-maximal inhibition (IC50).

In data set [1], `C[C@@]12CC[C@@](c3cn4cc(C(=O)Nc5cccn(C6CC6)c5=O)c(OC5CCC5)nc4n3)(CO1)C2` (single isomer, unassigned) [Example 16] gave a kinetic solubility at 24 h of 0.0052 mg/mL (≈ 10.9 µM). Besides, the efflux ratio at 120 min, 1 μM in data set [2] was determined as 2.8. Moreover, in data set [3], half-maximal inhibition (IC50) required 0.3 nM.

In data set [1], `CC12CC(c3cn4cc(C(=O)Nc5cccn([C@H]6C[C@H]6F)c5=O)c(OC5CCC5)nc4n3)(CO1)C2` (single isomer, unassigned) [Example 114] showed a solubility (kinetic) at 24 h of 0.0686 mg/mL (≈ 143 µM). In addition, the efflux ratio at 120 min, 1 μM in data set [2] turned out to be 10.4. For the same compound, the IC50 in data set [3] was 0.3 nM.

With `COC12CC(c3cn4cc(C(=O)Nc5cccn(C6CC6)c5=O)c(OC(C)C)cc4n3)(C1)C2` [Example 62, N-(1-cyclopropyl-2-oxo-1,2-dihydropyridin-3-yl)-7-isopropoxy-2-(3-methoxybicyclo[1.1.1]pentan-1-yl)imidazo[1,2-a]pyridine-6-carboxamide], the kinetic solubility at 24 h in data set [1] came out at 0.0582 mg/mL (≈ 130 µM). Further, the efflux ratio at 120 min, 1 μM in data set [2] was determined as 3.6. For the same compound, half-maximal inhibition in data set [3] (IC50) required 0.4 nM.

The compound `C[C@@H]1C[C@@H]1n1cccc(NC(=O)c2cn3cc(C45COC(C)(C4)C5)nc3cc2OC2CCC2)c1=O` [Example 190, 7-cyclobutoxy-2-(1-methyl-2-oxabicyclo[2.1.1]hexan-4-yl)-N-(1-((1S,2R)-2-methylcyclopropyl)-2-oxo-1,2-dihydropyridin-3-yl)imidazo[1,2-a]pyridine-6-carboxamide trifluoroacetate] displayed a kinetic solubility at 24 h in data set [1] of 0.0542 mg/mL. Further, the efflux ratio at 120 min, 1 μM in data set [2] was 4.1. Also, in data set [3], half-maximal inhibition (IC50) required 0.9 nM.

As for `Cc1cnc2c(NC(=O)c3cn4cc([C@@]56CC[C@@](C)(C5)OC6)nc4cc3OC(C)C)cnn2c1` (single isomer, unassigned) [Comparator 3B, reference compound], the kinetic solubility at 24 h in data set [1] was 0.0007 mg/mL (≈ 1.52 µM). Besides, the efflux ratio at 120 min, 1 μM in data set [2] was determined as 2. In addition, the half-inhibitory concentration (IC50) in data set [3] came to 0.1 nM.

With `CC[C@@H](C)Oc1nc2nc(C34COC(C)(C3)C4)cn2cc1C(=O)Nc1cccn([C@H]2C[C@H]2F)c1=O` (single isomer, unassigned) [Example 58], the solubility (kinetic) at 24 h in data set [1] worked out at 0.0721 mg/mL (≈ 150 µM). Further, the efflux ratio at 120 min, 1 μM in data set [2] came to 9. Further, the half-maximal inhibitory concentration (IC50) in data set [3] was found to be 0.4 nM.

As for `CC12CC(c3cn4cc(C(=O)Nc5ccnn(C6CC6)c5=O)c(OC5CCC5)nc4n3)(CO1)C2` [Example 72, 7-cyclobutoxy-N-(2-cyclopropyl-3-oxo-2,3-dihydropyridazin-4-yl)-2-(1-methyl-2-oxabicyclo[2.1.1]hexan-4-yl)imidazo[1,2-a]pyrimidine-6-carboxamide], the kinetic solubility at 24 h in data set [1] came to 0.0015 mg/mL (≈ 3.24 µM). Further, the efflux ratio at 120 min, 1 μM in data set [2] stood at 1.7. In data set [3], this compound returned an IC50 of 4.2 nM.

`CC(C)Oc1cc2nc([C@@]34CC[C@@](C)(C3)OC4)cn2cc1C(=O)Nc1cccn([C@H]2C[C@@H]2C)c1=O` (single isomer, unassigned) [Example 192] yielded a solubility (kinetic) at 24 h in data set [1] of 0.0606 mg/mL (≈ 127 µM). Besides, the efflux ratio at 120 min, 1 μM in data set [2] amounted to 1.7. The half-maximal inhibitory concentration (IC50) in data set [3] was 0.7 nM.

Regarding `CC(C)Oc1c(C(=O)Nc2cccn([C@H]3C[C@@H]3C)c2=O)cn2cc(C34COC(C)(C3)C4)nc2c1F` [Example 146, 8-fluoro-7-isopropoxy-2-(1-methyl-2-oxabicyclo[2.1.1]hexan-4-yl)-N-(1-((1S,2S)-2-methylcyclopropyl)-2-oxo-1,2-dihydropyridin-3-yl)imidazo[1,2-a]pyridine-6-carboxamide], the kinetic solubility at 24 h in data set [1] came to 0.0297 mg/mL (≈ 61.8 µM). For the same compound, in data set [2], the efflux ratio at 120 min, 1 μM turned out to be 1.7. Further, in data set [3], the 50% inhibitory concentration (IC50) was found to be 0.9 nM.

In turn, `O=C(Nc1cccn([C@@H]2C[C@@H]2F)c1=O)c1cn2cc(C34COC(C3)C4)nc2nc1OC1CCC1` (racemic) [Example 86, (rac)-Cis-2-(2-oxabicyclo[2.1.1]hexan-4-yl)-7-cyclobutoxy-N-(1-(2-fluorocyclopropyl)-2-oxo-1,2-dihydropyridin-3-yl)imidazo[1,2-a]pyrimidine-6-carboxamide] returned a kinetic solubility at 24 h in data set [1] of 0.0449 mg/mL (≈ 96.5 µM). Besides, the efflux ratio at 120 min, 1 μM in data set [2] is 0.9. In data set [3], this compound registered a half-maximal inhibitory concentration (IC50) of 0.8 nM.

In data set [1], `C[C@H](CF)Oc1cc2nc(C34COC(C)(C3)C4)cn2cc1C(=O)Nc1cccn(C2CC2)c1=O` [Example 29, (R)—N-(1-cyclopropyl-2-oxo-1,2-dihydropyridin-3-yl)-7-((1-fluoropropan-2-yl)oxy)-2-(1-methyl-2-oxabicyclo[2.1.1]hexan-4-yl)imidazo[1,2-a]pyridine-6-carboxamide] registered a kinetic solubility at 24 h of 0.0602 mg/mL (≈ 129 µM). In data set [2], the efflux ratio at 120 min, 1 μM stood at 13.6. The compound also returned an IC50 in data set [3] of 0.6 nM.

A word on the solubility (kinetic): it is solubility judged after dilution from a stock solution rather than from solid. In general, efflux ratio refers to the permeability from basolateral to apical divided by that in the opposite direction, in the common usage. For orientation: IC50 means the concentration that inhibits the measured activity by half. A low value points to higher potency.
